Measurements: ChEMBL document CHEMBL1933035, “Discovery of pyrrolidine-based β-secretase inhibitors: lead advancement through conformational design for maintenance of ligand binding efficiency” (Bioorg Med Chem Lett, 2012)

Key:
[1] = Oral bioavailability in rat at 10 mg/kg; type: ADME, organism-based; settings: in vivo
[2] = Clearance in rat at 2 mg/kg, iv; type: ADME, organism-based; parameters: dose 2 mg/kg, route intravenous; settings: in vivo

bioavailability [1]: 44%
clearance [2]: 15 mL/min/kg
SMILES: O=C([C@@H]1CNC[C@]12CCCc1nc(Cl)ccc12)N1CC[C@@H](c2ccccc2)C[C@H]1C1CCCCC1
